In US20250320245A1, “Nucleoside Analogues for the Treatment of Parasitic Infections” (Universiteit Antwerpen, priority 2021, published 2025):
Read-outs that look alike come from different tables or passages of the source.

Assays:
Format in all cases: cell-based
[1] = Cytotoxicity assay on MRC-5 fibroblasts; conditions: human; for CC50 at 3 day: MRC-5SV2 embryonic lung fibroblasts, Table 1, mean and SEM of two independent experiments, highest concentration 64 μM, read-out: MRC-5 off-target cytotoxicity (CC50)
Protocol: MRC-5SV2 (Sigma-Aldrich/ECACC, catalogue number 84100401) human embryonic lung fibroblasts were used to perform cytotoxicity assays. The cells were cultured in minimum essential medium (MEM, Life Technologies) with Earle's salt medium, supplemented with L-glutamine, NaHCO3 and 5% inactivated fetal bovine serum (iFBS). Cells were seeded at 1.5×10^4 cells/well and 4-fold compound dilutions were immediately added with a highest in-test concentration of 64 μM. After a 3-day incubation, resazurin (Sigma-Aldrich) was added to each well (final concentration of 10 μg mL^−1), and cell viability was assessed by fluorescent reading (Tecan®, GENios) following 4 h of incubation with resazurin (37° C./5% CO2). The results were expressed as percentage reduction in cell growth/viability compared to control wells and the 50% cytotoxic concentration (CC50) was calculated for each of the compounds.

T. brucei (Squib 427) = test: In vitro drug susceptibility assay, T. brucei; conditions: Trypanosoma brucei
Protocol: (§1) Drug susceptibility assays with T. brucei (Squib 427), T. evansi type A (RoTat 1.2) and T. equiperdum (BoTat 1.1) were performed under similar conditions. Parasites were cultured in HMI-9 culture medium supplemented with 10% iFBS. To determine in vitro susceptibility of the abovementioned Trypanosoma species, 10 concentrations of a 4-fold dilution series (with a highest in-test concentration of 64 μM) was prepared for each compound, and parasites were seeded at 1.5×10^4 parasite/well. After 72 h of drug exposure at 37° C. with 5% CO2, resazurin was added to the wells (final concentration of 10 μg mL^−1), followed by another incubation for 24 h. Cell viability was determined by fluorescence reading (Tecan®, GENios) and 50% inhibitory concentration (IC50) was calculated for each compound.

T. vivax (ILRAD700) = test: Ex vivo drug susceptibility assay, T. vivax; conditions: Trypanosoma vivax
Description: T. congolense (IL3000), the isometamidium (ISM)-resistant T. congolense strain (MSORO M7H), T. evansi type A (RoTat 1.2), T. evansi type B (KETRI 2479) and T. equiperdum (BoTat 1.1) used for in vitro, ex vivo and in vivo experiments were kindly provided by the Institute of Tropical Medicine (ITM), and T. vivax (ILRAD700) and T. congolense (TC13) used for ex vivo and in vivo experiments, were kindly provided by the University of Brussel (VUB).
Ex Vivo Drug Susceptibility Assays for T. vivax, T. congolense ISM-Resistant, and T. evansi Type B
For Trypanosoma species/strains that were not adapted to culture conditions, donor mice were infected intraperitoneally with 10^4 parasites. Around day 5-6 post infection, blood was collected via cardiac puncture and parasites were isolated using mini-anion exchange centrifugation technique (mAECT). 4-fold dilutions of the test compounds were prepared with the highest concentration of 64 μM, and parasites were seeded at 1×10^5 parasite/well. Following 24 h of drug exposure at 37° C. and 5% CO2, resazurin was added to the wells and plates were incubated (37° C./5% CO2) for another 24 h. Cell viability was determined by fluorescence reading (Tecan®, GENios), and IC50 values were calculated by non-linear regression (dose-response curve with variable slope) using Prism 8.0 (GraphPad Software Inc., San Diego, CA, USA).

T. congolense (IL3000) = test: In vitro drug susceptibility assay, T. congolense; conditions: Trypanosoma congolense; Table 3; compounds wherein X=N
Protocol: Drug susceptibility assays for T. congolense (IL3000) were performed with parasites cultured in HMI-9 medium supplemented with 15% horse serum. Parasites were seeded at a concentration of 1.5×10^4 parasite/well and exposed to a 4-fold compound dilution series starting at a highest in-test concentration of 64 μM. Plates were incubated for 72 h at 34° C. and 5% CO2, followed by the addition of resazurin (Sigma, Aldrich) and a further incubation period of 24 h. Cell viability was quantified by fluorescence reading (Tecan®, GENios), and IC50 values were calculated by non-linear regression (dose-response curve with variable slope) using Prism 8.0 (GraphPad Software Inc., San Diego, CA, USA).

[2] = In vitro evaluation on PMM; conditions: mouse, Table 3, compounds wherein X=N
[3] = tested on: T. equiperdum (BoTat 1.1); test: In vitro drug susceptibility assay, T. equiperdum; conditions: Trypanosoma equiperdum; Table 3; compounds wherein X=N
Protocol: as §1

T. cruzi = test: In vitro evaluation against T. cruzi; conditions: Trypanosoma cruzi; Table 3; compounds wherein X=N
[4] = tested on: T. evansi type A (RoTat 1.2); test: In vitro drug susceptibility assay, T. evansi type A; conditions: Table 3; compounds wherein X=N; type not stated; read-out: IC50 T. evansi
Protocol: as §1

L. infantum = test: In vitro evaluation against L. infantum; conditions: Leishmania infantum; Table 3; compounds wherein X=N
[5] = Table 1, mean and SEM of two independent experiments, read-out: T. brucei in vitro activity (IC50)
[6] = Table 1, mean and SEM of two independent experiments, read-out: T. vivax in vitro activity (IC50)

CCCCSc1ncnc2c1ccn2[C@@H]1O[C@H](CO)[C@@H](O)[C@H]1O [FH15936]
CC50 at 3 day [1]: > 64 µM | IC50 (T. brucei (Squib 427); [5]): 0.03 ± 0.0001 µM | IC50 (T. vivax (ILRAD700); [6]): 0.024 ± 0.007 µM

COc1ccc(CSc2ncnc3c2ccn3[C@@H]2O[C@H](CO)[C@@H](O)[C@H]2O)cc1 [FH15960]
CC50 at 3 day [1]: > 64 µM | IC50 (T. brucei (Squib 427); [5]): 0.13 ± 0.008 µM | IC50 (T. vivax (ILRAD700); [6]): 0.82 ± 0.27 µM

OC[C@H]1O[C@@H](n2ccc3c(SC4CCCCC4)ncnc32)[C@H](O)[C@@H]1O [FH15957, 4-S-cyclohexyl-N7-(β-D-ribofuranosyl)pyrrolo[2,3-d]pyrimidine]
CC50 at 3 day [1]: 58.8 ± 1.37 µM | IC50 (T. brucei (Squib 427); [5]): 0.19 ± 0.04 µM | IC50 (T. vivax (ILRAD700); [6]): 3.16 ± 0.71 µM

CCC(C)Sc1ncnc2c1ccn2[C@@H]1O[C@H](CO)[C@@H](O)[C@H]1O (stereo partly drawn) [FH15956, 4-S-sec-butyl-N7-(β-D-ribofuranosyl)pyrrolo[2,3-d]pyrimidine]
CC50 at 3 day [1]: > 64 µM | IC50 (T. brucei (Squib 427); [5]): 0.36 ± 0.04 µM | IC50 (T. vivax (ILRAD700); [6]): 1.98 ± 0.94 µM

CC(C)c1ccc(CSc2ncnc3c2ccn3[C@@H]2O[C@H](CO)[C@@H](O)[C@H]2O)cc1 [FH15941, 4-S-(4-isopropylbenzyl)-N7-(β-D-ribofuranosyl)pyrrolo[2,3-d]pyrimidine]
CC50 at 3 day [1]: 26.9 ± 1.38 µM | IC50 (T. brucei (Squib 427); [5]): 0.44 ± 0.02 µM | IC50 (T. vivax (ILRAD700); [6]): 2.37 ± 1.47 µM

OC[C@H]1O[C@@H](n2ccc3c(SC4CCCC4)ncnc32)[C@H](O)[C@@H]1O [FH15952, 4—S-cyclopentyl-N7-(β-D-ribofuranosyl)pyrrolo[2,3-d]pyrimidine]
CC50 at 3 day [1]: 45.5 ± 1.87 µM | IC50 (T. brucei (Squib 427); [5]): 0.091 ± 0.001 µM | IC50 (T. vivax (ILRAD700); [6]): 0.62 ± 0.16 µM

CCCSc1ncnc2c1ccn2[C@@H]1O[C@H](CO)[C@@H](O)[C@H]1O [FH15935, 4-S-propyl-N7-(β-D-ribofuranosyl)pyrrolo[2,3-d]pyrimidine]
CC50 at 3 day [1]: > 64 µM | IC50 (T. brucei (Squib 427); [5]): 0.03 ± 0.0009 µM | IC50 (T. vivax (ILRAD700); [6]): 0.023 ± 0.005 µM

OC[C@H]1O[C@@H](n2ccc3c(SCc4ccccc4)ncnc32)[C@H](O)[C@@H]1O [FH14905]
CC50 at 3 day [1]: > 64 µM | IC50 (T. brucei (Squib 427); [5]): 0.019 ± 0.002 µM | IC50 (T. vivax (ILRAD700); [6]): 32.3 ± 4.85 µM

CC(C)Sc1ncnc2c1ccn2[C@@H]1O[C@H](CO)[C@@H](O)[C@H]1O [FH15958]
CC50 at 3 day [1]: > 64 µM | IC50 (T. brucei (Squib 427); [5]): 0.54 ± 0.04 µM | IC50 (T. vivax (ILRAD700); [6]): 0.46 ± 0.25 µM

OC[C@H]1O[C@@H](n2ncc3c(SCc4ccccc4)ncnc32)[C@H](O)[C@@H]1O [JB1034, 4-benzylthio-1-β-D-ribofuranosyl-1H-pyrazolo[3,4-d]pyrimidine]
IC50 (T. congolense (IL3000)): 0.03 µM | IC50 [2]: > 64 µM | IC50 at 3 day ([1]; MRC-5SV2 human embryonic lung fibroblasts, Table 3, compounds wherein X=N): > 64 µM | IC50 (T. brucei (Squib 427); Table 3, compounds wherein X=N, read-out: IC50 T. brucei): 0.05 µM | IC50 [3]: 0.02 µM | IC50 (T. cruzi): 6.02 µM | IC50 (T. vivax (ILRAD700); Table 3, compounds wherein X=N, read-out: IC50 T. vivax): 7.24 µM | IC50 [4]: 0.1 µM | IC50 (L. infantum): 10.1 µM

OC[C@H]1O[C@@H](n2ccc3c(SCCCc4ccccc4)ncnc32)[C@H](O)[C@@H]1O [FH15940, 4-(3-phenylpropyl)thio-N7-(β-D-ribofuranosyl)pyrrolo[2,3-d]pyrimidine]
CC50 at 3 day [1]: 24.3 ± 0.94 µM | IC50 (T. brucei (Squib 427); [5]): 0.106 ± 0.004 µM | IC50 (T. vivax (ILRAD700); [6]): 8.71 ± 1.19 µM
